Assay results as given in publication PMC6176729 (Journal of medicinal chemistry, 2018).

Columns and labels:
Type in all cases: in vitro ADME
[1] = Microsomal stability assay, human liver microsomes; details: for CLINT human: human liver microsomes 0.5 mg/mL, 1 μM compound; for CLHEP human: predicted hepatic clearance, human microsomes
[2] = Microsomal stability assay, rat liver microsomes; details: for CLHEP rat: predicted hepatic clearance, rat microsomes; for CLINT rat: rat liver microsomes 0.5 mg/mL, 1 μM compound
[3] = Microsomal stability assay, mouse liver microsomes
[4] = mouse liver microsomes 0.5 mg/mL, 1 μM compound
[5] = predicted hepatic clearance, mouse microsomes
[6] = male, CD-1, mouse, 1 μM, pH 7.4

| SMILES | CLINT human [1] | CLHEP human [1] | CLHEP rat [2] | CLINT rat [2] | CLINT mouse [3, 4] | CLHEP mouse [3, 5] | CLHEP mouse [3, 6] | CLINT mouse ([3]; mouse, microsomes) |
| --- | --- | --- | --- | --- | --- | --- | --- | --- |
| O=C(N[C@@H](Cn1ccnc1)c1ccc(Cl)cc1Cl)c1ccc(-c2nnc(-c3ccc(F)c(F)c3)o2)cc1 [Compound 1, (R)-N-(1-(2,4-Dichlorophenyl)-2-(1H-imidazol-1-yl)ethyl)-4-(5-(3,4-difluorophenyl)-1,3,4-oxadiazol-2-yl)benzamide] | 7.53 mL/min/kg body weight | 5.54 mL/min/kg body weight | 21 mL/min/kg body weight | 31 mL/min/kg body weight | 55 mL/min/kg body weight | 34 mL/min/kg body weight |  |  |
| O=C(N[C@@H](Cn1ccnc1)c1ccc(Cl)cc1Cl)c1ccc(-c2nnc(-c3ccc(C(F)(F)F)c(F)c3)o2)cc1 [Compound 2, (R)-N-(1-(2,4-Dichlorophenyl)-2-(1H-imidazol-1-yl)ethyl)-4-(5-(3-fluoro-4-(trifluoromethyl)phenyl)-1,3,4-oxadiazol-2-yl)benzamide] | 6.06 mL/min/kg body weight | 4.07 mL/min/kg body weight | 24 mL/min/kg body weight | 36 mL/min/kg body weight | 60 mL/min/kg body weight | 36 mL/min/kg body weight |  |  |
| O=C(N[C@@H](Cn1ccnc1)c1ccc(Cl)cc1Cl)c1ccc(-c2nnc(-c3ccc(OCC(F)(F)F)cc3F)o2)cc1 [Compound 3, (R)-N-(1-(2,4-Dichlorophenyl)-2-(1H-imidazol-1-yl)ethyl)-4-(5-(2-fluoro-4-(2,2,2-trifluoroethoxy)phenyl)-1,3,4-oxadiazol-2-yl)-benzamide] | 16.5 mL/min/kg body weight | 9.24 mL/min/kg body weight | 34 mL/min/kg body weight | 64 mL/min/kg body weight | 88 mL/min/kg body weight | 44 mL/min/kg body weight |  |  |
| O=C(N[C@@H](Cn1ccnc1)c1ccc(Cl)cc1Cl)c1ccc(-c2nnc(-c3cc(F)cc(OCC(F)(F)F)c3)o2)cc1 [Compound 4, (R)-N-(1-(2,4-Dichlorophenyl)-2-(1H-imidazol-1-yl)ethyl)-4-(5-(3-fluoro-5-(2,2,2-trifluoroethoxy)phenyl)-1,3,4-oxadiazol-2-yl)-benzamide] | 11.3 mL/min/kg body weight | 7.33 mL/min/kg body weight | 29 mL/min/kg body weight | 50.4 mL/min/kg body weight |  |  | 43.6 mL/min/kg body weight | 84.7 mL/min/kg body weight |
| O=C(N[C@@H](Cn1ccnc1)c1ccc(Cl)cc1Cl)c1ccc(-c2nnc(-c3ccc(Cl)c(Cl)c3)o2)cc1 [Compound 5, (R)-4-(5-(3,4-Dichlorophenyl)-1,3,4-oxadiazol-2-yl)-N-(1-(2,4-di-chlorophenyl)-2-(1H-imidazol-1-yl)ethyl)benzamide] | 11.4 mL/min/kg body weight | 7.39 mL/min/kg body weight | 35 mL/min/kg body weight | 70 mL/min/kg body weight |  |  | 49 mL/min/kg body weight | 107 mL/min/kg body weight |
| O=C(N[C@@H](Cn1ccnc1)c1ccc(Cl)cc1Cl)c1ccc(-c2nnc(-c3cccc(Br)c3)o2)cc1 [Compound 6, (R)-4-(5-(3-Bromophenyl)-1,3,4-oxadiazol-2-yl)-N-(1-(2,4-di-chlorophenyl)-2-(1H-imidazol-1-yl)ethyl)benzamide] | 9.47 mL/min/kg body weight | 6.53 mL/min/kg body weight | 19 mL/min/kg body weight | 27 mL/min/kg body weight | 126 mL/min/kg body weight | 55 mL/min/kg body weight |  |  |
| O=C(N[C@@H](Cn1ccnc1)c1ccc(Cl)cc1Cl)c1ccc(-c2nnc(-c3cccc(-c4ccccn4)c3)o2)cc1 [Compound 9, (R)-N-(1-(2,4-Dichlorophenyl)-2-(1H-imidazol-1-yl)ethyl)-4-(5-(3-(pyridin-2-yl)phenyl)-1,3,4-oxadiazol-2-yl)benzamide] | 13.1 mL/min/kg body weight | 8.06 mL/min/kg body weight | 35 mL/min/kg body weight | 68 mL/min/kg body weight |  |  | 56 mL/min/kg body weight | 152 mL/min/kg body weight |
| O=C(N[C@@H](Cn1ccnc1)c1ccc(Cl)cc1Cl)c1ccc(-c2nnc(-c3ccc(-c4ccccn4)cc3)o2)cc1 [Compound 10, (R)-N-(1-(2,4-Dichlorophenyl)-2-(1H-imidazol-1-yl)ethyl)-4-(5-(4-(pyridin-2-yl)phenyl)-1,3,4-oxadiazol-2-yl)benzamide] | 10.8 mL/min/kg body weight | 7.15 mL/min/kg body weight | 40 mL/min/kg body weight | 94 mL/min/kg body weight | 95 mL/min/kg body weight | 46 mL/min/kg body weight |  |  |
| O=C(N[C@@H](Cn1ccnc1)c1ccc(Cl)cc1Cl)c1ccc(-c2nnc(-c3cc(F)cc(-c4ccccn4)c3)o2)cc1 [Compound 11, (R)-N-(1-(2,4-Dichlorophenyl)-2-(1H-imidazol-1-yl)ethyl)-4-(5-(3-fluoro-5-(pyridin-2-yl)phenyl)-1,3,4-oxadiazol-2-yl)benzamide] | 96.6 mL/min/kg body weight | 17.3 mL/min/kg body weight | 24.0 mL/min/kg body weight | 36.0 mL/min/kg body weight | 55.0 mL/min/kg body weight | 34 mL/min/kg body weight |  |  |
| O=C(N[C@@H](Cn1ccnc1)c1ccc(Cl)cc1Cl)c1ccc(-c2nnc(-c3ccc(-c4ccccn4)cc3F)o2)cc1 [Compound 12, (R)-N-(1-(2/4-Dichlorophenyl)-2-(1H-imidazol-1-yl)ethyl)-4-(5-(4-(3-fluoropyridin-2-yl)phenyl)-1,3,4-oxadiazol-2-yl)benzamide] | 15 mL/min/kg body weight | 8.75 mL/min/kg body weight | 29.7 mL/min/kg body weight | 51.6 mL/min/kg body weight | 36.5 mL/min/kg body weight | 26.0 mL/min/kg body weight |  |  |
| O=C(N[C@@H](Cn1ccnc1)c1ccc(Cl)cc1Cl)c1ccc(-c2nnc(-c3cc(-c4ccccn4)ccc3F)o2)cc1 [Compound 13, (R)-N-(l-(2,4-Dichlorophenyl)-2-(TH-imidazol-l-yl)ethyl)-4-(5-(2-fluoro-5-(pyridin-2-yl)phenyl)-1,3,4-oxadiazol-2-yl)benzamide] | 10.2 mL/min/kg body weight | 6.85 mL/min/kg body weight | 29.0 mL/min/kg body weight | 49.4 mL/min/kg body weight | 238 mL/min/kg body weight | 65 mL/min/kg body weight |  |  |
| CS(=O)(=O)c1ccc(-c2nnc(-c3ccc(C(=O)N[C@@H](Cn4ccnc4)c4ccc(Cl)cc4Cl)cc3)o2)cc1Cl [Compound 14, (R)-4-(5-(3-Chloro-4-(methylsulfonyl)phenyl)-1,3,4-oxadiazol-2-yl)-N-(1-(2,4-dichlorophenyl)-2-(1H-imidazol-1-yl)ethyl)benzamide] | 9.31 mL/min/kg body weight | 6.45 mL/min/kg body weight | 42 mL/min/kg body weight | 104 mL/min/kg body weight |  |  | 34.5 mL/min/kg body weight | 56 mL/min/kg body weight |
| O=C(N[C@@H](Cn1ccnc1)c1ccc(Cl)cc1Cl)c1ccc(-c2nnc(-c3cc(F)cc(-c4ncncc4F)c3)o2)cc1 [Compound 15, (R)-N-(1-(2,4-Dichlorophenyl)-2-(1H-imidazol-1-yl)ethyl)-4-(5-(3-fluoro-5-(5-fluoropyrimidin-4-yl)phenyl)-1,3,4-oxadiazol-2-yl)-benzamide] | 14.9 mL/min/kg body weight | 8.37 mL/min/kg body weight | 19.5 mL/min/kg body weight | 27.0 mL/min/kg body weight | 104 mL/min/kg body weight | 48.3 mL/min/kg body weight |  |  |
| O=C(N[C@@H](Cn1ccnc1)c1ccc(Cl)cc1Cl)c1ccc(-c2nnc(-c3ccccc3)o2)cc1 [VNI, (R)-N-(1-(2,4-dichlorophenyl)-2-(1H−imidazol-1-yl)ethyl)-4-(5-phenyl-1,3,4-oxadiazol-2-yl)-benzamide, reference compound] | 8.31 mL/min/kg body weight | 5.95 mL/min/kg body weight | 19.2 mL/min/kg body weight | 26.4 mL/min/kg body weight | 87 mL/min/kg body weight | 44 mL/min/kg body weight |  |  |
